From patent publication US9359338B2, “Cyclopropanecarboxamido-substitute aromatic compounds as anti-tumor agents” (Crown Bioscience Inc. (Taiwan), priority 2012, dated 2016)
Read-outs that look alike come from different tables or passages of the source.

Key:
KDR kinase (790-1356 AA) = KDR kinase (790-1356 AA) (Homo sapiens (Human), UniProt P35968); assay: Inhibitory activity at KDR kinase (Lance Ultra Ulight-TK assay); type: biochemical
Summary of the method: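 Kinase (20 nM final) and compound were premixed 20 min at 30 °C, then phosphorylation ran 2 h at 30 °C with ATP at 90 μM and Ulight-TK substrate at 50 μM, pH 7.5, Mg2+ and Mn2+ present.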

B-Raf kinase = B-Raf kinase (Homo sapiens (Human), UniProt P15056); assay: Inhibitory activity at B-Raf kinase (ADP-GLO assay); type: biochemical
Description: Inhibitory Activity of Compounds at B-Raf Kinase
• [Experimental method]: Use ADP-GLO™ assay kit from Promega to evaluate the inhibitory activity of compounds at B-Raf • [Instrument]: PerKinElmer's ENVISION plate reader • [Material]: Optiplate-384 well plate (PerKinElmer), kinase buffer (50 mM Hepes pH7.5, 1 mM EGTA, 2 mM DTT, 10 mM Mg^2+, 0.05% BSA), B-Raf kinase (Millipore, catalogue #14-530-K), GST-MEK1 substrate (Carna, catalogue #07-141-10), Super pure ATP (Promega), ADP-GLO™ assay kit (Promega, catalogue # V9102), DMSO (Sigma, catalogue #34869), purified water (Millipore, type: Milli-Q). • [Study conditions]: Mix B-Raf kinase (final concentration: 5 nM) and compound (DMSO final concentration: 0.25%) and preincubate at 30° C. for 20 min, then add ATP (final concentration: 6 μM) and reaction substrate (final concentration: 30 nM), React for 2 hrs at 30° C. After reaction, add ADP-GLO™ reagent, react for 40 min at room temperature, then add ADP-GLO™ detecting agent, react for 30 min at room temperature. After that, use ENVSION to measure the […]. • [Samples]: Compounds in the examples and Sorafenib (positive control) • [Data analysis]: Use CBIS data analysis software to calculate IC50 values

pERK in MDA-MB-231 cells = assay: Inhibitory activity at pERK (In Cell Western, MDA-MB-231 cells); type: cell-based
Summary of the method: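 pERK was measured by in-cell immunofluorescence (PI nuclear counterstain, Acumen read-out) in fixed MDA-MB-231 cells. Compound exposure lasted 2 h in DMEM with 0.1% BSA, using eight 3-fold dilutions starting at 30 μM final and 0.3% DMSO. IC50 values were derived from the resulting curves.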

PLC-PRF-5 cells = assay: Inhibition of proliferation of PLC-PRF-5 cells (ATPlite); type: cell-based; details: Homo sapiens
Summary of the method: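 Antiproliferative IC50 from luminescent ATP detection (ATPlite) after 96 h compound exposure at 37 °C. Cells grown in DMEM plus 10% FBS and allowed 2 h to settle, then dosed with eight 3-fold dilutions topping at 30 μM final, DMSO 0.3%.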

[1] = Homo sapiens, MDA-MB-231, MDA-MB-231 cells, read-out: MDA-MB-231 pERK IC50
[2] = PLC-PRF-5, PLC-PRF-5 cells, read-out: PLC-PRF-5 cell proliferation IC50

Chain of B-Raf kinase (P15056 416-766): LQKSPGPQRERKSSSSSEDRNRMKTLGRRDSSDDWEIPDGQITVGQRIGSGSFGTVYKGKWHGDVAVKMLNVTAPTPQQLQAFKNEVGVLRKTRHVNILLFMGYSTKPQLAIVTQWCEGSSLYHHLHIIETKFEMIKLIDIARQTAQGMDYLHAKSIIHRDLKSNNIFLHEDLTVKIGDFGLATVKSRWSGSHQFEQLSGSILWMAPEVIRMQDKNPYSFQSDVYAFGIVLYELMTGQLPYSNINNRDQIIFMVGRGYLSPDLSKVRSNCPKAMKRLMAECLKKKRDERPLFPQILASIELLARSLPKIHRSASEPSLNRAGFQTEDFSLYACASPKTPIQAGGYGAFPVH
Chain of KDR kinase (790-1356 AA) (P35968 790-1356): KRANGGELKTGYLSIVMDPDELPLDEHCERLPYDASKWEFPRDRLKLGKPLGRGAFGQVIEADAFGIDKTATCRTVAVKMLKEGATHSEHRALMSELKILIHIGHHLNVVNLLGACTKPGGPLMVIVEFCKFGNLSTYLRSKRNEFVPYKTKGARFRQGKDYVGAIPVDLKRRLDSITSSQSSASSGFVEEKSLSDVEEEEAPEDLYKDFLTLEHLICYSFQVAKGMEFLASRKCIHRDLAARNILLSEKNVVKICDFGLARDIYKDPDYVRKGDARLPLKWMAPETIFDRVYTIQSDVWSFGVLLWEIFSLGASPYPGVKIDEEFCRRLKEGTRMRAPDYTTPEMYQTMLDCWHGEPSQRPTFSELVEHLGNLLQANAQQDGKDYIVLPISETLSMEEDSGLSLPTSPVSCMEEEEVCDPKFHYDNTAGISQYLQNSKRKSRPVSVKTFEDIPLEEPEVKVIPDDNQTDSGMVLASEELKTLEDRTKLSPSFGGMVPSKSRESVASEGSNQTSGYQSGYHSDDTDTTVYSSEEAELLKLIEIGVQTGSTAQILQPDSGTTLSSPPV

Compound | IC50 (KDR kinase (790-1356 AA)) [µM] | IC50 (B-Raf kinase) [µM] | IC50 (pERK in MDA-MB-231 cells; [1]) [µM] | IC50 (PLC-PRF-5 cells; [2]) [µM] | IC50 (pERK in MDA-MB-231 cells; MDA-MB-231 cells, read-out: MDA-MB-231 pERK IC50) [µM] | IC50 (pERK in MDA-MB-231 cells; Homo sapiens, MDA-MB-231, read-out: MDA-MB-231 pERK IC50) [µM] | IC50 (PLC-PRF-5 cells; PLC-PRF-5, read-out: PLC-PRF-5 cell proliferation IC50) [µM]
Cc1cc(Oc2cc(NC(=O)C3CC3)ncn2)ccc1NC(=O)Nc1ccc(Cl)c(C(F)(F)F)c1 [Exe. 001, N-[6-[4-[[4-chloro-3-(trifluoromethyl)phenyl]carbamoylamino]-3-methyl-phenoxy]pyrimidin-4-yl]cyclopropanecarboxamide] | 0.0109 | 0.039 | 0.031 | 6.9 | – | – | –
O=C(Nc1ccc(Oc2cc(NC(=O)C3CC3)ncn2)cc1)Nc1ccc(Cl)c(C(F)(F)F)c1 [Exe. 007] | 0.0057 | 0.0248 | 0.046 | 7.24 | – | – | –
O=C(Nc1ccc(Oc2cc(NC(=O)C3CC3)ncn2)c(F)c1)Nc1ccc(Cl)c(C(F)(F)F)c1 [Exe. 008] | 0.0057 | 0.0249 | 0.124 | 4.55 | – | – | –
O=C(Nc1ccc(Cl)c(C(F)(F)F)c1)Nc1ccc(Oc2cc(NC(=O)C3CC3)ncn2)cc1F [Exe. 009] | 0.0089 | 0.026 | 0.0205 | 3.65 | – | – | –
Cc1cc(NC(=O)Nc2ccc(Cl)c(C(F)(F)F)c2)ccc1Oc1cc(NC(=O)C2CC2)ncn1 [Exe. 010] | 0.0137 | 0.097 | 0.0431 | 4.35 | – | – | –
Cc1cc(NC(=O)Nc2ccc(Cl)c(C(F)(F)F)c2)cnc1Oc1ccnc(NC(=O)C2CC2)c1 [Exe. 017] | 0.0292 | 0.0157 | 0.0188 | 2.82 | – | – | –
O=C(Nc1cnc(Oc2ccnc(NC(=O)C3CC3)c2)c(Cl)c1)Nc1ccc(Cl)c(C(F)(F)F)c1 [Exe. 019] | 0.0223 | 0.0181 | 0.172 | 0.84 | – | – | –
O=C(Nc1ccc(Oc2ccnc(NC(=O)C3CC3)c2)nc1)Nc1ccc(Cl)c(C(F)(F)F)c1 [Exe. 020] | 0.0058 | 0.0197 | 0.291 | 1.99 | – | – | –
O=C(Nc1ccc(Cl)c(C(F)(F)F)c1)Nc1ccc(Oc2ccnc(NC(=O)C3CC3)c2)cn1 [Exe. 021] | 0.0075 | 0.0247 | 0.0102 | 0.6 | – | – | –
O=C(Nc1ccc(Oc2ccnc(NC(=O)C3CC3)c2)c(F)c1)Nc1ccc(Cl)c(C(F)(F)F)c1 [Exe. 022] | 0.0043 | 0.0036 | – | 1.71 | 0.0195 | – | –
Cc1cc(Oc2ccnc(NC(=O)C3CC3)c2)ccc1NC(=O)Nc1ccc(Cl)c(C(F)(F)F)c1 [Exe. 023] | 0.0105 | 0.015 | 0.0069 | 4.17 | – | – | –
O=C(Nc1cc(F)cc(Oc2ccnc(NC(=O)C3CC3)c2)c1)Nc1ccc(Cl)c(C(F)(F)F)c1 [Exe. 024] | 0.0338 | 0.0051 | 0.0195 | 4.24 | – | – | –
O=C(Nc1cnc(Oc2ccnc(NC(=O)C3CC3)c2)c(F)c1)Nc1ccc(Cl)c(C(F)(F)F)c1 [Exe. 025] | 0.0149 | 0.0091 | 0.0716 | 0.371 | – | – | –
CC1(C(=O)Nc2cc(Oc3ccc(NC(=O)Nc4ccc(Cl)c(C(F)(F)F)c4)cc3F)ccn2)CC1 [Exe. 028] | 0.0127 | 0.021 | 0.391 | 2.49 | – | – | –
O=C(Nc1ccc(Cl)c(C(F)(F)F)c1)Nc1ccc(Oc2ccnc(NC(=O)C3CC3)c2)cc1F [Exe. 029] | 0.0039 | 0.0073 | 0.0101 | 0.79 | – | – | –
Cc1ccc(Oc2ccnc(NC(=O)C3CC3)c2)cc1NC(=O)Nc1ccc(Cl)c(C(F)(F)F)c1 [Exe. 030] | 0.0124 | 0.018 | 0.0232 | 2.8 | – | – | –
Cc1cc(NC(=O)Nc2ccc(Cl)c(C(F)(F)F)c2)ccc1Oc1ccnc(NC(=O)C2CC2)c1 [Exe. 031] | 0.0145 | 0.025 | 0.0338 | 1.3 | – | – | –
O=C(Nc1cccc(OC(F)(F)F)c1)Nc1ccc(Oc2ccnc(NC(=O)C3CC3)c2)cc1F [Exe. 034] | 0.0102 | 0.0094 | 0.0047 | 0.219 | – | – | –
CC(F)(F)c1cc(F)cc(NC(=O)Nc2ccc(Oc3ccnc(NC(=O)C4CC4)c3)cc2F)c1 [Exe. 035] | 0.0078 | 0.0089 | 0.0093 | 0.259 | – | – | –

Compound | IC50 (KDR kinase (790-1356 AA)) [µM] | IC50 (B-Raf kinase) [µM] | IC50 (pERK in MDA-MB-231 cells; [1]) [µM] | IC50 (PLC-PRF-5 cells; [2]) [µM] | IC50 (pERK in MDA-MB-231 cells; MDA-MB-231 cells, read-out: MDA-MB-231 pERK IC50) [µM] | IC50 (pERK in MDA-MB-231 cells; Homo sapiens, MDA-MB-231, read-out: MDA-MB-231 pERK IC50) [µM] | IC50 (PLC-PRF-5 cells; PLC-PRF-5, read-out: PLC-PRF-5 cell proliferation IC50) [µM]
CS(=O)(=O)c1cc(NC(=O)Nc2ccc(Oc3ccnc(NC(=O)C4CC4)c3)c(F)c2)cc(C(F)(F)F)c1 [Exe. 037] | 0.0135 | 0.026 | 0.0339 | 0.768 | – | – | –
CN1CCC(Oc2cc(NC(=O)Nc3ccc(Oc4ccnc(NC(=O)C5CC5)c4)c(F)c3)cc(C(F)(F)F)c2)C1 (stereo not drawn) [Exe. 038] | 0.0082 | 0.0053 | 0.0235 | 0.13 | – | – | –
CC1CN(c2cc(NC(=O)Nc3ccc(Oc4ccnc(NC(=O)C5CC5)c4)c(F)c3)cc(C(F)(F)F)c2)C(=O)O1 (stereo not drawn) [Exe. 041] | 0.0042 | 0.0375 | 0.0181 | 0.358 | – | – | –
CC(=O)Nc1cc(NC(=O)Nc2ccc(Oc3ccnc(NC(=O)C4CC4)c3)c(F)c2)cc(C(F)(F)F)c1 [Exe. 044] | 0.0142 | 0.013 | 0.0298 | 0.752 | – | – | –
CC1CN(c2cc(NC(=O)Nc3ccc(Oc4ccnc(NC(=O)C5CC5)c4)c(F)c3)cc(C(F)(F)F)c2)CC(C)O1 (stereo not drawn) [Exe. 047] | 0.0062 | 0.0736 | 0.0533 | 0.682 | – | – | –
CN(C)C1CCN(c2cc(NC(=O)Nc3ccc(Oc4ccnc(NC(=O)C5CC5)c4)c(F)c3)cc(C(F)(F)F)c2)C1 (stereo not drawn) [Exe. 048] | 0.0073 | 0.011 | 0.025 | 0.233 | – | – | –
O=C(Nc1cc(N2CCC(O)CC2)cc(C(F)(F)F)c1)Nc1ccc(Oc2ccnc(NC(=O)C3CC3)c2)c(F)c1 [Exe. 051] | 0.0052 | 0.0236 | 0.0339 | 0.749 | – | – | –
O=C(Nc1cc(N2CCCC2=O)cc(C(F)(F)F)c1)Nc1ccc(Oc2ccnc(NC(=O)C3CC3)c2)c(F)c1 [Exe. 052] | 0.0155 | 0.013 | 0.022 | 0.36 | – | – | –
CC(F)(F)c1cncc(NC(=O)Nc2ccc(Oc3ccnc(NC(=O)C4CC4)c3)c(F)c2)c1 [Exe. 056] | 0.0175 | 0.065 | 0.0397 | 0.11 | – | – | –
O=C(Nc1ccc(Oc2ccnc(NC(=O)C3CC3)c2)c(F)c1)Nc1cc(C2CC2)ccc1F [Exe. 058] | 0.0137 | 0.116 | 0.03 | 0.043 | – | – | –
O=C(Nc1ccc(Oc2ccnc(NC(=O)C3CC3)c2)c(F)c1)Nc1ccc2[nH]cc(F)c2c1 [Exe. 059] | 0.0082 | 0.09 | 0.0194 | 0.643 | – | – | –
O=C(Nc1cccc(C(F)(F)F)c1)Nc1ccc(Oc2ccnc(NC(=O)C3CC3)c2)c(F)c1 [Exe. 061] | 0.00373 | 0.0063 | 0.0263 | 0.211 | – | – | –
N#Cc1ccc(NC(=O)Nc2ccc(Oc3ccnc(NC(=O)C4CC4)c3)c(F)c2)cc1C(F)(F)F [Exe. 062] | 0.00718 | 0.007 | – | – | – | 0.0294 | 3.05
O=C(Nc1ccc(Oc2ccnc(NC(=O)C3CC3)c2)c(F)c1)Nc1ccc(Cl)c(OC(F)(F)F)c1 [Exe. 063] | 0.0055 | 0.0149 | 0.0291 | 2.33 | – | – | –
CN1CCN(Cc2cc(NC(=O)Nc3ccc(Oc4ccnc(NC(=O)C5CC5)c4)cc3)cc(C(F)(F)F)c2)CC1 [Exe. 064] | 0.0119 | 0.0046 | – | 0.61 | – | – | –
CC(F)(F)c1cncc(NC(=O)Nc2ccc(Oc3ccnc(NC(=O)C4CC4)c3)cc2)c1 [Exe. 065] | 0.0065 | 0.025 | 0.0465 | 0.162 | – | – | –
Cc1cc(Oc2cc(NC(=O)C3CC3)ncn2)ccc1NC(=O)Nc1ccc(F)c(C(F)(F)F)c1 [Exe. 070, N-[6-[4-[[4-fluoro-3-(trifluoromethyl)phenyl]carbamoylamino]-3-methyl-phenoxy]pyrimidin-4-yl]cyclopropanecarboxamide] | 0.011 | 0.145 | 0.0635 | 9.3 | – | – | –
Cc1cc(Oc2cc(NC(=O)C3CC3)ncn2)ccc1NC(=O)Nc1cccc(C(F)(F)F)c1 [Exe. 074] | 0.0105 | 0.146 | 0.0775 | 6.07 | – | – | –
